We go through five compounds from paper PMC6912857 (Journal of Medicinal Chemistry, 2019).

The conditions of series [1]: cited from earlier work.
Series [2] relates to rats. The settings on record: cited from earlier work.
For series [3], the target named is H2R (Homo sapiens, UniProt P25021). The series can be described thus: CRE-luciferase reporter gene assay, H2R. It is filed as cell-based. The settings on record: up to 10 μM.
Series [4] can be described thus: Metabolic stability in mouse liver microsomes.
Series [5] has as its system Male C57Bl6 mice. The series is described as follows: Social recognition test in mice.
Series [6] is described as follows: Nephelometry / aqueous solubility. The settings on record: up to 100 mM concentration. It is filed as physicochemical.
In series [7] the target is T1, mH4R (Mus musculus, UniProt Q91ZY2).
T1 sequence (Q91ZY2 1-391): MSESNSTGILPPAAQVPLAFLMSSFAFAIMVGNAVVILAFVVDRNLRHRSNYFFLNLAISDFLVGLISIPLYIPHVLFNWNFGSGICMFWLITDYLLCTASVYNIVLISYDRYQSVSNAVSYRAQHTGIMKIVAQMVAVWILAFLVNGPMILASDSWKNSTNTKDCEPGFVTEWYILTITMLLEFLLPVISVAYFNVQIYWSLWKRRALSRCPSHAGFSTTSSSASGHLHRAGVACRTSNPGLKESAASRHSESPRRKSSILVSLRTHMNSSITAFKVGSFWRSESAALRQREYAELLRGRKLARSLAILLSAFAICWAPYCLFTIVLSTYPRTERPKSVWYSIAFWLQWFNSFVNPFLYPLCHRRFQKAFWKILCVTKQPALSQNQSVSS
The series is described as follows: CRE-luciferase reporter gene assay, mH4R expressed on HEK293T cells. It is filed as cell-based.

Series [8] deals with H1R (Homo sapiens, UniProt P35367). The series can be described thus: NFAT-luciferase reporter gene assay, H1R. It is filed as cell-based. The settings on record: up to 10 μM. A general note: Reporter assays use an easily measured gene product as a stand-in for the process of interest.
Chain of H1R (P35367 whole entry, species assumed): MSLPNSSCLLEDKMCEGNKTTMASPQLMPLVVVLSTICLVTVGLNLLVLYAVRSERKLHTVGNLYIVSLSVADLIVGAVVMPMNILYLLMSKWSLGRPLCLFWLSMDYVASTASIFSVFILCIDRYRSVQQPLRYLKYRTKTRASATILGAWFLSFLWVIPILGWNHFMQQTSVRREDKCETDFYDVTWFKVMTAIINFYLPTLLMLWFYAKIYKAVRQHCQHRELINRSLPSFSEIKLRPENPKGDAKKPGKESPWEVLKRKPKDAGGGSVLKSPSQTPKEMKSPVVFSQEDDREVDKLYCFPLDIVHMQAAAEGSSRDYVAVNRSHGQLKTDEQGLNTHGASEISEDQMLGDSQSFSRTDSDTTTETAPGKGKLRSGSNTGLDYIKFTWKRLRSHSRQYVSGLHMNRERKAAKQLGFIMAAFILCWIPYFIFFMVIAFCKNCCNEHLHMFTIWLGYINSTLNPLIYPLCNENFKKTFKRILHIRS
Series [9] has as its target hH3R (Homo sapiens, UniProt Q9Y5N1). The series is described as follows: CRE-luciferase reporter gene assay, hH3R expressed on HEK293T cells. It is filed as cell-based. The settings on record: intrinsic activity compared to histamine.

“Also recorded” adds a separate entry of the source.

Chain of hH3R (Q9Y5N1 whole entry): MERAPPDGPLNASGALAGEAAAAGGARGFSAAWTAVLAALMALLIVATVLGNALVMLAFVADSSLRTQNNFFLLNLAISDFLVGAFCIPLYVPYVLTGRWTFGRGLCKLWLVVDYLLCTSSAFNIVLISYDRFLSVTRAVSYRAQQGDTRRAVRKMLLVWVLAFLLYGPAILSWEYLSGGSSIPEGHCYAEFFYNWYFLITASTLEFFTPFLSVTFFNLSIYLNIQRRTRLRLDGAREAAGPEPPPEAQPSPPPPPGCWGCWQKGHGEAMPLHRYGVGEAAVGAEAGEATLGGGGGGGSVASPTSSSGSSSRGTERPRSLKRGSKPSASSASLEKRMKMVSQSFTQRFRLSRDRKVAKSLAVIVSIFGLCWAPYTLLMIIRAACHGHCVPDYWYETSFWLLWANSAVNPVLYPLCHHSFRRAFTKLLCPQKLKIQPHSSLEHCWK
Chain of H2R (P25021 whole entry, species assumed): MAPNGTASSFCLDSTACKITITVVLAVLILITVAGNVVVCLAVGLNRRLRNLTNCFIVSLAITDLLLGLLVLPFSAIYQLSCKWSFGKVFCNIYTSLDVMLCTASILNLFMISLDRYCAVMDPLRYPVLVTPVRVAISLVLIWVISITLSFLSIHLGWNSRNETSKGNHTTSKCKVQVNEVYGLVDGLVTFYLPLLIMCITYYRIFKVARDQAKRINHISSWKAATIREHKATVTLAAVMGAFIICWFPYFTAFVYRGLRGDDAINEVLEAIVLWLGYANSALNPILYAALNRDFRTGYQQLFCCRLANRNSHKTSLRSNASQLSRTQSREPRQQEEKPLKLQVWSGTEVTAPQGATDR

As to `S=C(NC1CCCCC1)N1CCC(c2cnc[nH]2)CC1` [thioperamide], in series [1], the “effect on memory in the social recognition test” value is “improve short-term memory”.
Regarding `N=C(N)SCCc1cnc[nH]1` [Imetit, imetit], the “effect on memory in the object recognition and passive avoidance tests” value in [2] is listed as “memory impairments”.
Turning to `c1ncc(CC2CCNCC2)[nH]1` [immepip], the “effect on memory in the social recognition test” value in series [1] was “cause amnesia”.
On to `CCCNC1CN(c2ccnc(N)n2)C1.O.O=C(O)/C=C/C(=O)O` [14d, 4-(3-(Propylamino)azetidin-1-yl)pyrimidin-2-amine Fumarate Hydrate], for which the “activation of H2R” value in [3] is given as “does not activate”. The “slower elimination compared with the reference control verapamil” value in [4] (mouse liver microsomes) is “more than 2 times”. The half-life (commonly the time needed for the level to fall by half in the phase considered) at 50 μM in series [4] (mouse, microsomes, pH 7.4) is 2.18 h. Further, the “CNS / brain penetration” value in [5] (indicated by effects in the in vivo social memory test, 5 mg/kg i.p., 5 mg/kg) is reported as “clearly penetrating the CNS; also recorded: appreciable brain penetration”. The “discrimination index (DI)” value in series [5] (mice, 5 mg/kg i.p.) is given as “negative”. Moreover, the “social recognition memory (discrimination of novel vs familiar mouse)” value in series [5] (mice, 5 mg/kg i.p. 30 min before the training session, 5 mg/kg) was “amnesic effects; also recorded: did not discriminate between the novel and the familiar mouse; also recorded: impairs social recognition”. For the same compound, the “exploration time of the cage during test” value in series [5] (mice, 5 mg/kg i.p., during test) was 148.3 ± 69.4 s. Moreover, the “exploration time of the cage during training” value in series [5] (mice, 5 mg/kg i.p., during training) came to 136.2 ± 44.1 s. Moreover, in [5] (mice, 5 mg/kg i.p., training session), the sociability entry was “did not affect”. In series [6], the “microprecipitation (nephelometry)” value is reported as “no microprecipitation”. The “selectivity in potency mH3R vs mH4R” value in [7] was above 10 fold. In addition, in series [8], the “activation of H1R” value is reported as “does not activate”.
Regarding `CCNC1CN(c2cc(CC)nc(N)n2)C1` [12c, 4-Ethyl-6-(3-(ethylamino)azetidin-1-yl)pyrimidin-2-amine], in series [9], the “α (intrinsic activity)” value is listed as around 1.0.
